Tests used:
lysozyme = assay: Maillard reaction inhibiting activity test (lysozyme and fructose, dimer formation by SDS-PAGE/densitometry); assay type: biochemical; details: lysozyme 10 mg/ml, fructose 200mM, 0.5M sodium phosphate buffer pH7.4, 37°C, 1 week, inhibition of lysozyme dimer formation; for Inhibiting Activity (%) Concentration (0.2mM): test compound 0.2mM; for Inhibiting Activity (%) Concentration (2mM): test compound 2mM
Procedure: The test compound (0.2mM or 2mM), lysozyme (lOmg/ml) and fructose (200mM) were dissolved in 0.5M sodium phosphate buffer (pH7.4), and the solution was incubated at 37°C for l week. After incubation, the sample was separated by SDS-PAGE and stained with Coomassie Brilliant Blue R-250. The percentage of formed dimer to total proteins was measured by densitometry. Inhibiting activities of the test compounds were evaluated from comparing the percentage of formed dimer in the presence of the test compound with that in the absence of the test compound.

[1] = test system: AGE content in plasma proteins; assay: Inhibition assay for AGE formation in vivo (AGE content in plasma proteins by ELISA using anti-AGE antibody); design: species or system male SD rats; details: STZ-induced diabetic rats, 4 weeks, relative to untreated rats (as 100% control)
Procedure: Diabetes was induced in male SD rats, 6 weeks of age, by intravenous single injection of streptozotocin (STZ) (50mg/kg) into tail. One week after diabetes induction, α -amino-2-hydroxyphenylacetic acid.hydrochloride or aminoguanidine was given to the diabetic rats by daily oral administration at dosage of 50mg/kg or lOOmg/kg. After 4 weeks of administration, blood samples were collected and AGE content in plasma proteins was measured by ELISA using anti-AGE antibody. AGE content in drug-treated rats were estimated compared with the average content of untreated rats (as 100% control).

Male SD rats [2] = assay: Acute toxicity test; assay type: in vivo; details: for hematological examinations / death: 2000 mg/kg; for death: single administration 2000 mg/kg, until 7 days after administration
Procedure: Male SD rats, 6 weeks of age and weighing between 140g and 165 g, were conditioned to an overnight fast. α -Amino-2 hydroxyphenylacetic acid.hydrochloride suspended in 0.5% of CMC were given to the rats at a dosage of 2000 mg/kg. Control group rats received 0.5% of CMC alone.
Six hours after administration, all rats were allowed free access to food and water. Seven days after administration, blood samples were collected and tested with hematological examinations. Plasma samples were tested with blood biochemical examinations.

Male SD rats [3] = assay: Toxicity test by long-term administration; assay type: in vivo
Procedure: Male SD rats, 6 weeks of age, received STZ (50mg/kg) by single intravenous injection into the tail and were made diabetic. One week after STZ injection, α -amino-2-hydroxyphenylacetic acid-hydrochloride suspended in 0.5% of CMC was given to the diabetic rats by daily oral administration at a dosage of lOOmg/kg. Rats in the control group received O.5% of CMC alone. Compared with the control group, significant reduction in weight and significant increase in number of dead animals were not observed until ten weeks after administration.

[4] = STZ diabetic rats, 100mg/kg daily oral, until ten weeks, versus control group

Row | Compound | Inhibiting Activity (%) Concentration (0.2mM) (lysozyme) | Inhibiting Activity (%) Concentration (2mM) (lysozyme) | further results
1 | COC(=O)C(N)c1ccccc1O.Cl (stereo not drawn) [Example 2, Methyl α -amino-2-hydroxyphenylacetate-hydrochloride] | 30.6% | 67.5% | 
2 | Cl.NC(C(=O)NCCc1ccccc1)c1ccccc1O (stereo not drawn) [Example 9, N-(2-Phenethyl)-α-amino-2-hydroxyphenylacetamidehydrochloride] |  | 80.0% | 
3 | N=C(N)NN [aminoguanidine, reference compound] | 2.9% | 17.2% | AGE content ([1]; aminoguanidine daily oral, dose not stated in the table (50mg/kg or 100mg/kg per method)): 88.8%
4 | NC(C(=O)O)c1ccccc1O (single isomer, unassigned) [Example 12, α -Amino-2-hydroxyphenylacetic acid (optical isomer)] | 22.4% | 83.5% | 
5 | NC(CC(=O)O)c1ccccc1O (centres unmarked) [Example 10, 3-Amino-3-(2-hydroxyphenyl)propionic acid] | 15.0% |  | 
6 | CC(C)OC(=O)CCC(N)c1ccccc1O.Cl (centres unmarked) [Example 15, Isopropyl 4-amino-4-(2-hydroxyphenyl)butyrate.hydrochloride] | 2.7% |  | 
7 | Cl.NC(=O)C(N)c1ccccc1O (stereo not drawn) [Example 14, α -Amino-2-hydroxyphenylacetamide-hydrochloride] | 21.4% | 87.6% | 
8 | COc1ccc(O)c(C(N)C(=O)O)c1.Cl (stereo not drawn) [Example 4, α -Amino-2-hydroxy-5-methoxyphenylacetic acid-hydrochloride] | 30.9% | 87.4% | 
9 | Cl.NC(C(=O)O)c1cc(Cl)ccc1O (stereo not drawn) [Example 3, α -Amino-5-chloro-2-hydroxyphenylacetic acid-hydrochloride] | 38.8% | 88.4% | 
10 | NC(C(=O)O)c1ccccc1O (single isomer, unassigned) [Example 13, α -Amino-2-hydroxyphenylacetic acid (optical isomer)] | 24.0% | 86.3% | 
11 | NC(=O)C(N)c1ccccc1O (stereo not drawn) [Example 7, α -Amino-2-hydroxyphenylacetamide] | 38.7% | 89.3% | 
12 | COC(=O)C(N)c1cc(O)ccc1O (stereo not drawn) [Example 5, Methyl α -amino-2,5-dihydroxyphenylacetate] |  | 48.3% | 
13 | CN(C)C(=O)C(N)c1ccccc1O (stereo not drawn) [Example 6, N,N-Dimethyl-α -amino-2-hydroxyphenylacetamide] | 13.0% | 82.1% | 
14 | Cl.NC(C(=O)O)c1ccccc1O (stereo not drawn) [Example 1, α -Amino-2-hydroxyphenylacetic acid.hydrochloride] | 21.2% | 86.1% | AGE content ([1]; 50 mg/kg daily oral): 81.6%; AGE content ([1]; 100mg/kg daily oral): 62.4%; blood biochemical examinations (Male SD rats [2]; 2000 mg/kg single dose, seven days after administration, versus control group): no significant difference was observed; hematological examinations (Male SD rats [2]; 2000 mg/kg single dose, seven days after administration, versus control group, listed as α -Amino-2 hydroxyphenylacetic acid.hydrochloride): no significant difference was observed; hematological examinations (Male SD rats [2]; 2000 mg/kg single dose, seven days after administration, versus control group, listed as α -amino-2-hydroxyphenylacetic acid hydrochloride): a significant effect was not observed; behavior disorder (Male SD rats [2]; 2000 mg/kg single dose, until 6 hours after administration): behavior disorder was not observed; death (Male SD rats [2]; listed as α -Amino-2 hydroxyphenylacetic acid.hydrochloride): all animals did not die; death (Male SD rats [2]; listed as α -amino-2-hydroxyphenylacetic acid hydrochloride): no death was observed; increase in number of dead animals (Male SD rats [3]; [4]): not observed; reduction in weight (Male SD rats [3]; [4]): not observed; toxicity and side effects (Male SD rats [3]; rats, 100mg/kg/day for ten consecutive weeks): significant toxicity and side effects were not observed
15 | Cl.NC(C(=O)NCc1ccccc1)c1ccccc1O (stereo not drawn) [Example 8, N-Benzyl-α-amino-2-hydroxyphenylacetamide-hydrochloride] | 13.9% | 55.3% | 

Reference: patent publication EP0839799A1, “2-HYDROXYPHENYLALKYLAMINE DERIVATIVES AND MAILLARD REACTION INHIBITORS” (KISSEI PHARMACEUTICAL CO., LTD., priority 1995, dated 1996)
